Test [1] concerns bile acid sensor BreR from V. cholerae. In kind it is cell-based. The conditions noted are these: for Sensitivity: BreR bile acid sensor in B. thetaiotaomicron; for Sensitivity / Basal Activity: ± SD; for Basal Activity / Dynamic Range: BreR bile acid sensor; for Basal Activity: basal reporter luminescence; for Dynamic Range: reporter induction; for sensor sensitive to substance (FIG. 4 legend): in vitro functionality; for induction of reporter luminescence by bile acid: strain grown with various concentrations of bile acids, FIGS. 4B-4G.

The test system of test [2] is VFA0359 from Vibrio fischeri. Description: Luciferase assay of bile acid sensor using VFA0359 in B. thetaiotaomicron. The class given is cell-based. The conditions noted are these: same operator sequence as BreR.

For `C[C@H](CCC(=O)O)[C@H]1CC[C@H]2[C@@H]3[C@H](O)C[C@@H]4C[C@H](O)CC[C@]4(C)[C@H]3C[C@H](O)[C@]12C` [CA, cholic acid], in test [1], the “relative sensitivity of the sensor among deconjugated bile acids” value was “least sensitive”, the Sensitivity is recorded as 0.8 ± 0.2 Lum/μM*10^−5, the “Basal Activity” value worked out at 2.1 ± 0.7 Lum × 10^4 and the “Dynamic Range” value is 18.5 ± 3.8 fold-change. In test [1], the “sensor sensitive to substance (FIG. 4 legend)” value (shortened to “sensor sensitive to substance”) is “sensitive” and the “induction of reporter luminescence by bile acid” value (“induction” for short) is recorded as “induced luminescence in a dose dependent manner”.

`C[C@H](CCC(=O)O)[C@H]1CC[C@H]2[C@@H]3[C@H](O)C[C@@H]4C[C@H](O)CC[C@]4(C)[C@H]3CC[C@]12C` [CDCA, chenodeoxycholic acid]: in test [1], the “relative sensitivity of the sensor among deconjugated bile acids” value is recorded as “moderately sensitive”, the Sensitivity stood at 2.3 ± 1.1 Lum/μM*10^−5, the “Basal Activity” value worked out at 1.9 ± 0.4 Lum × 10^4 and the “Dynamic Range” value worked out at 25.8 ± 11.1 fold-change. Moreover, in test [1], the “sensor sensitive to substance” value is “sensitive” and the “induction” value is “induced luminescence in a dose dependent manner”.

For the compound `C[C@H](CCC(=O)O)[C@H]1CC[C@H]2[C@@H]3CC[C@@H]4C[C@H](O)CC[C@]4(C)[C@H]3C[C@H](O)[C@]12C` [DCA, deoxycholic acid], the “induced gene expression of the reporter construct” value in test [2] is listed as roughly 600 fold. In test [1], the Sensitivity was found to be 25.8 ± 7.6 Lum/μM*10^−5, the “Basal Activity” value stood at 1.7 ± 0.8 Lum × 10^4 and the “Dynamic Range” value amounted to 71.5 ± 3.4 fold-change.

Turning to `C[C@H](CCC(=O)NCC(=O)O)[C@H]1CC[C@H]2[C@@H]3[C@H](O)C[C@@H]4C[C@H](O)CC[C@]4(C)[C@H]3C[C@H](O)[C@]12C` [GCA, glycocholic acid], in test [1], the “sensor sensitive to substance” value was “not” and the “induction” value is given as “does not sense”.

Consider `C[C@H](CCC(=O)O)[C@H]1CC[C@H]2[C@@H]3CC[C@@H]4C[C@H](O)CC[C@]4(C)[C@H]3CC[C@]12C` [LCA, lithocholic acid], for which, in test [1], the Sensitivity was found to be 1.4 ± 0.8 Lum/μM*10^−5, the “Basal Activity” value came out at 2.2 ± 0.9 Lum × 10^4 and the “Dynamic Range” value came out at 17.5 ± 4.9 fold-change.

For `C[C@H](CCC(=O)NCCS(=O)(=O)O)[C@H]1CC[C@H]2[C@@H]3[C@H](O)C[C@@H]4C[C@H](O)CC[C@]4(C)[C@H]3C[C@H](O)[C@]12C` [TCA, taurocholic acid], in test [1], the “sensor sensitive to substance” value is reported as “not” and the “induction” value was “does not sense”.

On to `CC(C)CCC[C@@H](C)[C@H]1CC[C@H]2[C@@H]3CC=C4C[C@@H](O)CC[C@]4(C)[C@H]3CC[C@]12C` [cholesterol], for which the “sensor sensitive to substance” value in test [1] was “not”.

Source of the values: patent publication US20180073031A1, “TRANSCRIPTIONAL SENSOR FOR BILE ACIDS IN BACTEROIDES THETAIOTAOMICRON” (priority 2016, published 2018).
